Data on four compounds can be found in PMC10201369, “An asymmetric structure of bacterial TrpRS supports the half-of-the-sites catalytic mechanism and facilitates antimicrobial screening” (Nucleic Acids Research, 2023).

Test [1] concerns the target T1, EcTrpRS (Escherichia coli, UniProt P00954).
T1 construct: gene trpS; full-length (domains span residues 1-334), C-terminal His6 tag, pET20b(+), E. coli BL21(DE3); homodimer, as purified carries one copurified TrpAMP per dimer
The test is described as follows: ITC, one-site model; cocrystal structure. The class given is binding. The following applies: PBS, 15 °C. (In general: In ITC the heat of successive injections is recorded.)

For test [2], the target named is T1, EcTrpRS. The experiment in a line: ATP consumption assay (Kinase-Glo), tRNA-dependent. The class given is biochemical. (Kinase-Glo measures the ATP left after a reaction by luminescence.)
The next test deals with T2, SaTrpRS (Staphylococcus aureus, UniProt P67593).
T2 construct: gene trpS; residues 1-329, expressed and purified similarly to EcTrpRS (His-tagged, E. coli BL21(DE3))
The test is described as follows: ITC, one-site model. The following applies: PBS, 15 °C. It counts as binding.

For test [3], the target named is T1, EcTrpRS. The experiment in a line: crystal structure, copurified. The class given is binding. The following applies: intermediate product in active site of closed subunit; 1.80 Å.
The target of test [4] is T1, EcTrpRS. The experiment in a line: ITC, one-site model. The class given is binding.

T2 sequence (P67593 whole entry, the tested form may be a part): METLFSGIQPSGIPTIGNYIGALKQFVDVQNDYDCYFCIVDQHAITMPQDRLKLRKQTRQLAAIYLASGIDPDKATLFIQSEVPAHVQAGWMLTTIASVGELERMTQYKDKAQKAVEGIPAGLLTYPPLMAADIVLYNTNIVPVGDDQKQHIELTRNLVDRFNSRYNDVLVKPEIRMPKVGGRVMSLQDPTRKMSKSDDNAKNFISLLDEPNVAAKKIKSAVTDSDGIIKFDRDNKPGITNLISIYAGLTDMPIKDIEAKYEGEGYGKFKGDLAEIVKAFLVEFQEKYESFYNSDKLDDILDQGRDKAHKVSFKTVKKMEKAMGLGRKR

For orientation: Kd means the constant that tells how readily two partners part at equilibrium. A high value points to weaker binding. What is called IC50 is the point on the concentration scale where inhibition reaches its midpoint. As for `NC(=O)c1cccc2cn(-c3ccc([C@@H]4CCCNC4)cc3)nc12` [niraparib], the Kd entry is “~ around 20 μM” at EcTrpRS [1] (L-Trp site of the open subunit, blocked by high L-Trp) and “~ around 20 μM” on SaTrpRS. Half-maximal inhibition on EcTrpRS [2] (IC50) required 148 µM.
In the case of `Nc1ncnc2c1ncn2[C@@H]1O[C@H](COP(=O)(O)OC(=O)[C@@H](N)Cc2c[nH]c3ccccc23)[C@@H](O)[C@H]1O` [TrpAMP], the “crystal structure, copurified” value at EcTrpRS [3] was “A copurified tryptophanyl adenylate (TrpAMP)”.
Take `N[C@@H](Cc1c[nH]c2ccccc12)C(=O)O` [L-Trp]: the Kd result on EcTrpRS [1] (measured for open-closed (one TrpAMP bound) and apo open-open enzyme, active site of open subunit) was “ITC measurements of L-Trp to ‘open-closed’ asymmetric EcTrpRS and ‘open-open’ apo EcTrpRS showed similar binding”.
`Nc1ncnc2c1ncn2[C@@H]1O[C@H](COP(=O)(O)OP(=O)(O)OP(=O)(O)O)[C@@H](O)[C@H]1O` [ATP] returned a Kd on EcTrpRS [4] of 305 ± 49.9 µM.
